# Experimental data taken from ChEMBL document CHEMBL1671772, “Predicting hERG activities of compounds from their 3D structures: development and evaluation of a global descriptors based QSAR model” (Eur J Med Chem, 2011).
# Assays:
# [1] = target: T1, Voltage-gated inwardly rectifying potassium channel KCNH2 (Homo sapiens, UniProt Q12809)
# [2] = target: T1, Voltage-gated inwardly rectifying potassium channel KCNH2; remark: listed apart in the source
# T1 sequence (Q12809 whole entry): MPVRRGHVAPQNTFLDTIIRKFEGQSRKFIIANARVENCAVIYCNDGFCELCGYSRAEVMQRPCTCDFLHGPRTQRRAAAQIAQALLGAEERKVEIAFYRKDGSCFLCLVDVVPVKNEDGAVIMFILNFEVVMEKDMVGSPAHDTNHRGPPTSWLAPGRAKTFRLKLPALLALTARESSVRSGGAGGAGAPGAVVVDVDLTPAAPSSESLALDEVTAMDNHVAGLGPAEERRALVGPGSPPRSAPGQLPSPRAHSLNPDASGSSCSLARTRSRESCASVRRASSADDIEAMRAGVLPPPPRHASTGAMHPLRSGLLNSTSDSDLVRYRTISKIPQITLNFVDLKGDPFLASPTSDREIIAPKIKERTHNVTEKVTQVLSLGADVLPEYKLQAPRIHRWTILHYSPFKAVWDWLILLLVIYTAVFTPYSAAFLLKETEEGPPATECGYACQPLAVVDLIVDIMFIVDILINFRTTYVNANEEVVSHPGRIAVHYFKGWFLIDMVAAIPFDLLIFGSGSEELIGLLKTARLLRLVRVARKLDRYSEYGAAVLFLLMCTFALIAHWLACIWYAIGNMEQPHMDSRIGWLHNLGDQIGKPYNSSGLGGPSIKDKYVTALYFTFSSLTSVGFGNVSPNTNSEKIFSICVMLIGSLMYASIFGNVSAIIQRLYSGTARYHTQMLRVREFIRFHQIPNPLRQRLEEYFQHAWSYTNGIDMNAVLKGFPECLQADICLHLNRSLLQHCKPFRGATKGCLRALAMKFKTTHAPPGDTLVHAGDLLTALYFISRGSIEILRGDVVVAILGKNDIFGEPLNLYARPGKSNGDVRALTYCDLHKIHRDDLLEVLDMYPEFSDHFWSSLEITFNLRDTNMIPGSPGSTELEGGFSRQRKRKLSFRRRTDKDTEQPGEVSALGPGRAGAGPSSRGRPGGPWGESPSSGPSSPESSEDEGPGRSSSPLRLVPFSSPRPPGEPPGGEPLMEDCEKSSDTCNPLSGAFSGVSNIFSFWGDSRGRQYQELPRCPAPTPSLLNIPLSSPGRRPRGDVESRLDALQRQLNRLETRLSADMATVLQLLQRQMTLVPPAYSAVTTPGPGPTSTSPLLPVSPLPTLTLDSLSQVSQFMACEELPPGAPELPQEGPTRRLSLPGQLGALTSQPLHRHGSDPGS
compound,measurement,setting,value
COc1cc(N)c(Cl)cc1C(=O)NC1CCN(Cc2ccccc2)CC1 [CLEBOPRIDE],IC50,[1],0.603 µM
CCOC(=O)C1C(OC(=O)c2ccccc2)CC2CCC1N2C (stereo not drawn),IC50,[1],1.2 µM
CC(C(O)c1ccc(O)cc1)N1CCC(Cc2ccccc2)CC1 (stereo not drawn) [IFENPRODIL],IC50,[1],0.1 µM
COC(=O)C1=CCC2CCC1N2C (stereo in doubt; 41),IC50,[1],170 µM
CO[C@@H]1[C@@H](O[C@@H]2O[C@H](C)[C@@H](O[C@H]3C[C@@](C)(O)[C@@H](OC(=O)CC(C)C)[C@H](C)O3)[C@H](N(C)C)[C@H]2O)[C@@H](CC=O)C[C@@H](C)[C@@H](O)/C=C\C=C\C[C@@H](C)OC(=O)C[C@H]1OC(C)=O,IC50,[1],102 µM
Fc1ccc(-n2cc(C3CCN(CCN4CCN=C4S)CC3)c3ccccc32)cc1,IC50,[1],0.00617 µM
O=C1NCCN1CCN1CCC(C2CN(c3ccc(F)cc3)c3ccccc32)CC1 (stereo not drawn),IC50,[1],0.0234 µM
c1ccc(-c2[nH]c3ccccc3c2C2CC3CCC(C2)N3c2ccccc2)cc1 (stereo not drawn),IC50,[1],0.0178 µM
CCC1OC(=O)C(C)C(OC2CC(C)(OC)C(O)C(C)O2)C(C)C(OC2OC(C)CC(N(C)C)C2O)C(C)(OC)CC(C)C(=O)C(C)C(O)C1(C)O (stereo not drawn),IC50,[1],33.1 µM
CCCN1C[C@H](CSC)C[C@@H]2c3cccc4[nH]cc(c34)C[C@H]21 [PERGOLIDE],IC50,[1],0.12 µM
CCc1cn(-c2ccc(F)cc2)c2ccc(Cl)cc12,pIC50,[2],2.46
O=C1NCCN1CCN1CCC(c2cn(C3CCCCC3)c3ccc(Cl)cc23)CC1,IC50,[1],0.138 µM
CC(C)(C)c1ccc2c(ccn2-c2ccc(F)cc2)c1,IC50,[1],10 µM
COC(=O)C1=CCC2CCC1N2C (stereo in doubt; 21),IC50,[1],8.91 µM
COC(=O)[C@@H]1[C@H]2CC[C@@H](C[C@@H]1O)N2C,IC50,[1],417 µM
COc1ccc2cc3[n+](cc2c1OC)CCc1cc2c(cc1-3)OCO2 [BERBERINE],IC50,[1],66.1 µM
O=C(OC1Cc2c(O)cc(O)cc2OC1c1cc(O)c(O)c(O)c1)c1cc(O)c(O)c(O)c1 (stereo not drawn),IC50,[1],6.03 µM
CC1=C2C3OC(=O)C(C)C3C(O)CC2(C)C=CC1=O (stereo not drawn),IC50,[1],110 µM
Cc1cccc(C)c1OCC(C)N (stereo not drawn) [MEXILETINE],IC50,[1],10 µM
CCCCCCCN(CC)CCCCc1ccc([N+](=O)[O-])cc1,IC50,[1],0.00219 µM
NC(=O)N1c2ccccc2C=Cc2ccccc21 [CARBAMAZEPINE],IC50,[1],105 µM
CCC(O)(CC)c1cn(-c2ccc(F)cc2)c2ccc(Cl)cc12,IC50,[1],15.8 µM
CC(C)c1cn(-c2ccc(F)cc2)c2ccc(Cl)cc12,IC50,[1],10 µM
CC(=O)NC(=O)C1CCC(C2N=CC(c3cccc(Br)c3)=N2)CC1 (stereo not drawn),IC50,[1],0.501 µM
CC(C)(C)N1CCC(c2ccccc2)(c2ccccc2)CC1 [BUDIPINE],IC50,[1],0.851 µM
Clc1ccccc1C(c1ccccc1)(c1ccccc1)n1ccnc1 [CLOTRIMAZOLE],IC50,[1],3.02 µM
Cc1cc2c(s1)Nc1ccccc1N=C2N1CCN(C)CC1 [OLANZAPINE],IC50,[1],0.204 µM
CCCC(C)C1(CC)C(=O)NC(=O)NC1=O (stereo not drawn) [PENTOBARBITAL],IC50,[1],132 µM
CCCC1NC(C)C2C(=O)N=C(c3cc(S(=O)(=O)N4CCN(CC)CC4)ccc3OCC)NN12 (stereo not drawn),IC50,[1],12.9 µM
CCNCCc1cccc(C(F)(F)F)c1,IC50,[1],537 µM
O=C(OC1CC2CC3CC(C1)N2CC3O)c1c[nH]c2ccccc12 (stereo not drawn) [MDL-74156],IC50,[1],12 µM
CCOc1cc(N)c(Cl)cc1C(=O)NCC1CN(Cc2ccc(F)cc2)CCO1 (stereo not drawn) [MOSAPRIDE],IC50,[1],4.79 µM
CCCCN1CCCC[C@H]1C(=O)Nc1c(C)cccc1C [LEVOBUPIVACAINE],IC50,[1],20.9 µM
CCC1OC(=O)C(C)C(OC2CC(C)(OC)C(O)C(C)O2)C(C)C(OC2OC(C)CC(N(C)C)C2O)C(C)(O)CC(C)/C(=N/OCOCCOC)C(C)C(O)C1(C)O (stereo not drawn),IC50,[1],36.3 µM
CN1CC(=O)N2[C@H](c3ccc4c(c3)OCO4)c3[nH]c4ccccc4c3C[C@@H]2C1=O,IC50,[1],100 µM
CN1C2CCC1C(C(=O)O)C(OC(=O)c1ccccc1)C2 (stereo not drawn),IC50,[1],3980 µM
CC(O)c1cn(-c2ccc(F)cc2)c2ccc(Cl)cc12 (stereo not drawn),pIC50,[2],2.34
CCCCc1oc2ccc(NS(C)(=O)=O)cc2c1C(=O)c1ccc(OCCCN(CCCC)CCCC)cc1 [DRONEDARONE],IC50,[1],0.316 µM
CC(C)(C)c1ccc(NC(=O)N2CCN(c3ncccc3Cl)CC2)cc1,IC50,[1],1 µM
COc1ccc(CC(=O)Nc2cc3c(cc2[N+](=O)[O-])OC(C)(C)[C@H](O)[C@H]3NC2CC2)cc1,IC50,[1],43.7 µM
CC(=O)c1cn(-c2ccc(F)cc2)c2ccc(Cl)cc12,IC50,[1],10 µM
CCC(=O)O[C@@](Cc1ccccc1)(c1ccccc1)[C@@H](C)CN(C)C [LEVOPROPOXYPHENE],IC50,[1],2.75 µM
CCC(=O)c1cn(-c2ccc(F)cc2)c2ccc(Cl)cc12,pIC50,[2],2.7
CCOP(=O)(Sc1ccccc1)Sc1ccccc1 [EDIFENPHOS],IC50,[1],50.1 µM
COc1ccc(Cc2nccc3cc(OC)c(OC)cc23)cc1OC [PAPAVERINE],IC50,[1],7.24 µM
O=C(NCCN1CCOCC1)c1ccc(Cl)cc1 [MOCLOBEMIDE],IC50,[1],79.4 µM
CCC(O)c1cn(-c2ccc(F)cc2)c2ccc(Cl)cc12 (stereo not drawn),pIC50,[2],2.66
Cc1cccc(C)c1NC(=O)C1CCCCN1C (stereo not drawn) [MEPIVACAINE],IC50,[1],155 µM
Cc1cn2c(N)c(Cl)cc(C(=O)NCC3CCN(CC(C)C)CC3)c2n1,IC50,[1],2.57 µM
O=C1CCC(c2ccc(Nc3ccncc3)cc2)=NN1 [SENAZODAN],IC50,[1],1.05 µM
CC(C)(CN1CCC(=C2c3ccc(F)cc3COc3ccccc32)CC1)C(=O)O,IC50,[1],10 µM
COC(=O)C1=C(C)NC(C)=C(C(=O)OC(C)C)C1c1cccc2nonc12 (stereo not drawn) [ISRADIPINE],IC50,[1],50.1 µM
CCCc1cn(-c2ccc(F)cc2)c2ccc(Cl)cc12,pIC50,[2],1.59
CN(C)CCCn1cc(C2=C(c3c[nH]c4ccccc34)C(=O)NC2=O)c2ccccc21 [GF-109203],IC50,[1],1 µM
O=C1NCCN1CCN1CCC(c2cn(-c3ccc(F)cc3)c3ccccc23)CC1,IC50,[1],0.00692 µM
O=C1NCCN1CCN1CC=C(c2cn(-c3ccc(F)cc3)c3ccc(Cl)cc23)CC1,IC50,[1],0.01 µM
COc1ccc(CC(=O)NCc2ccccc2-c2ccccc2C(=O)NCCc2cccnc2)cc1,IC50,[1],10 µM
Fc1ccc(-n2cc(C3CCNCC3)c3cc(Cl)ccc32)cc1,IC50,[1],0.204 µM
